Target: Isoleucine--tRNA ligase (Escherichia coli (strain K12), UniProt P00956)
Test: Competitive Ligand Binding Assay
Details: pH 7.5; 20 °C
Source text: Utilizing an analytical ultracentrifuge, the binding constants of various amino acids and isoleucine analogues to IleRS were estimated from their competition with radioactively labeled L-isoleucine.

Chain of Isoleucine--tRNA ligase (P00956 whole entry): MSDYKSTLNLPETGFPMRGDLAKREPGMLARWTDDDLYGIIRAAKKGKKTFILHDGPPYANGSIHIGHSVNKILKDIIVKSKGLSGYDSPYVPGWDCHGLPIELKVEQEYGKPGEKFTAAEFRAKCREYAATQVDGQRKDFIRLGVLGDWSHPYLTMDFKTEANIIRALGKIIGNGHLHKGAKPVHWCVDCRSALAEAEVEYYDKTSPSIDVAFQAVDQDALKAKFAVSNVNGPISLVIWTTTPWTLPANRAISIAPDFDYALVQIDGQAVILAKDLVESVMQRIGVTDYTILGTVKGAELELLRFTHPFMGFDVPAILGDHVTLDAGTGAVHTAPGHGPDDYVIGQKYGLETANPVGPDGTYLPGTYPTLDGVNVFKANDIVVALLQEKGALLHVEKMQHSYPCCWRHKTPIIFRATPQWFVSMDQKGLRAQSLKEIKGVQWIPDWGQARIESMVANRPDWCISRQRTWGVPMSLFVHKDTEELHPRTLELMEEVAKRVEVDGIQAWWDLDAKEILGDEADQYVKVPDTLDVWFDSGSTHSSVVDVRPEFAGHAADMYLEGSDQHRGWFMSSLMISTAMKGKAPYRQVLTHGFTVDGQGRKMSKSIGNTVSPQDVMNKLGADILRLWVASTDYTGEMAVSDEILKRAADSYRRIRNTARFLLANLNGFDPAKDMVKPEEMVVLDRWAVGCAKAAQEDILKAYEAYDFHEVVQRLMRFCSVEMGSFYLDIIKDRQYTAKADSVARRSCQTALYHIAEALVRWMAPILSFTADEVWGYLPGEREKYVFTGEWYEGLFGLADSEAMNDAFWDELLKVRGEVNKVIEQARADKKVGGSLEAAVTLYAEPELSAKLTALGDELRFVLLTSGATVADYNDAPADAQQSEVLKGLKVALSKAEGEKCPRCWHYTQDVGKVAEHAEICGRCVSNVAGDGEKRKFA

SMILES | Ki [mM]
CCC[C@@H](CC)C(N)C(=O)O (mixture of isomers) [(3R)-2-amino-3-ethylhexanoic acid] | 5
CC(C)(C)CC(N)C(=O)O (racemic) [2-amino-4,4-dimethylpentanoic acid] | 12.5
CC(C)CCC(N)C(=O)O (racemic) [2-amino-5-methylhexanoic acid] | 3.33
CC(C)[C@H](N)CO [(2S)-2-amino-3-methylbutan-1-ol] | 14.3
CCC(C)[C@H](N)CO (stereo partly drawn) [(2S)-2-amino-3-methylpentan-1-ol] | 8.33
CC(C)(C)C[C@H](N)C(=O)O [(2S)-2-amino-4,4-dimethylpentanoic acid] | 12.5
CC(C)CC[C@H](N)C(=O)O [(2S)-2-amino-5-methylhexanoic acid] | 2.5
CCCCC[C@H](N)C(=O)O [(2S)-2-aminoheptanoic acid] | 16.7
CC(C)[C@@H](C)[C@H](N)C(=O)O [(2S,3R)-2-amino-3,4-dimethylpentanoic acid] | 5
CC[C@H](C)C[C@H](N)C(=O)O [(2S,4S)-2-amino-4-methylhexanoic acid] | 2
CC(C)[C@@H](C)C(N)C(=O)O (stereo partly drawn) [(3R)-2-amino-3,4-dimethylpentanoic acid] | 3.33
CCCC[C@@H](C)C(N)C(=O)O (stereo partly drawn) [(3R)-2-amino-3-methylheptanoic acid] | 16.7
CCC[C@H](CC)C(N)C(=O)O (stereo partly drawn) [(3S)-2-amino-3-ethylhexanoic acid] | 5
CCCC[C@H](C)C(N)C(=O)O (stereo partly drawn) [(3S)-2-amino-3-methylheptanoic acid] | 2.5

Now those with a lower Ki, led by results:

Ki [mM] | SMILES
1.25 | CCC(C)(C)[C@H](N)C(=O)O (racemic) [2-amino-3,3-dimethylpentanoic acid]
0.53 | CCC(CC)C(N)C(=O)O (stereo unspecified) [2-amino-3-ethylpentanoic acid]
0.56 | CCC(CC)[C@H](N)C(=O)O [(2S)-2-amino-3-ethylpentanoic acid]
0.0455 | CC(C)[C@H](C)[C@H](N)C(=O)O [(2S,3S)-2-amino-3,4-dimethylpentanoic acid]
0.05 | CCC[C@H](C)[C@H](N)C(=O)O [(2S,3S)-2-amino-3-methylhexanoic acid]
1.67 | CCC[C@@H](C)C(N)C(=O)O (stereo partly drawn) [(3R)-2-amino-3-methylhexanoic acid]
0.0588 | CCC[C@H](C)C(N)C(=O)O (stereo partly drawn) [(3S)-2-amino-3-methylhexanoic acid]

Source: BindingDB's records for doi:10.1111/j.1432-1033.1976.tb10435.x (Gesellschaft Fur Molekularbiolische Forschung Mbh, 1976)
